These results are taken from patent US8367721B2, “Methods of treating an overweight or obese subject” (Zafgen, Inc., priority 2008, dated 2013).

Experiment [1] relates to diet-induced obese C57BL/6NTac mice. As to the kind of experiment: 7 day oral weight loss study in diet-induced obese mice (Example 5). It is filed as in vivo. To be noted: oral 1.0 mg/kg once a day for 7 days. On the procedure: A weight loss study was conducted in obese mice. The mice in this study were not genetically obese, but prior to and during the study, obesity was induced by a high-fat diet. Twelve week-old C57BL/6NTac mice, maintained on a 60% fat diet prior to and during the study, were separated into seven groups, eight animals per group. Average body weight of the mice was approximately 47 g at the start of the study.
Each of six groups was orally administered 1.0 mg/kg of a compound ([…] compounds B. C, D, E, F and G as disclosed herein), in 10% gelucire in deoinised water. Each of these six groups was administered a different compound. One group was orally administered fumagillin at 1.0 mg/kg (group 201) in 10% gelucire in deoinised water, and one group was administered 10% gelucire in deoinised water (vehicle). Mice received administrations once a day for 7 days.
(Data analyzed by ANCOVA with body weight on Day 1 as covariate followed by multiple tests against vehicle group: *p<0.05; **p<0.01, ***p<0.001.)

The subject of experiment [2] is C57BL/6 mice conditioned on a high fat diet. Briefly: Diet admixture for 250 days in high fat diet mice. It is filed as in vivo. As for the experimental part:
(§1) Oral administration of the MetAP2 inhibitor fumagillin causes an increase in circulating ketone bodies, as measured by concentration of beta hydroxybutyrate, which indicates an increase in the breakdown of stored fat.
In addition to showing an increase in beta hydroxybutyrate concentration, C57BL/6 mice conditioned on a high fat diet and treated with fumagillin (ZGN-201) as a diet admixture (1 mg/kg daily for 250 days) also experienced a reduction in body fat by approximately 40 percent (FIG. 6). Once attaining the maximum weight reduction, mice treated daily with 1 mg/kg fumagillin maintained a weight that was 25% less than that of age-matched mice maintained on normal mouse chow diet (lean mice, FIG. 6) for the duration of the experiment.
Adipose tissue in mice fed a high-fat diet show distinctive crown-like structures not seen in lean mice. These crown-like structures were also absent from the adipose tissue of fumagillin-treated mice.

The subject of experiment [3] is TXN in Cos-1 and 293T cells. As to the kind of experiment: FLAG-tagged TXN expression (gel) in transfected Cos-1 and 293T cells. It is filed as cell-based. As for the experimental part: EC50 of fumagillin to increase TXN levels is <10 nM.
The subject of experiment [4] is Thioredoxin-1 (TXN) in B16F10 cells. As to the kind of experiment: N-terminal chymotryptic fragments of TXN by LC/MS in fumagillin-treated B16F10 cells. The class given is cell-based. As for the experimental part:
B16F10 cells were treated with increasing concentrations of fumagillin. N-terminal chymotryptic fragments of TXN were measured by liquid chromatography/mass spectrometry (LC/MS). […] The EC50 of fumagillin to increase Met-TXN acetylated Met-TXN levels is <10 nM.

The subject of experiment [5] is High fat diet-fed C57BL/6 mice. Briefly: 14 day body weight and food intake study in high fat diet-fed mice. It is filed as in vivo. As for the experimental part: High fat diet-fed C57BL/6 mice were treated with 1 mg/kg of the MetAP2 inhibitor fumagillin (ZGN-201, squares) or vehicle (diamonds) for 14 days (FIG. 10). Body weights (left panel) were determined daily, while food intake (right panel) was assessed every other day by measuring the food consumed by each cage of three mice over the two day period. Data shown in FIG. 10 are means±SEM, n=9 animals. […] First, during the initial two to three days of treatment, no overt changes in food intake or body weight are observed. During this time period key changes in MetAP2 substrates occur, including glyceraldehyde-3-phosphate dehydrogenase and thioredoxin (data not shown). Second, the animals enter a period of rapid weight loss that proceeds until essentially all excess fat deposits are consumed. During this second period, fat oxidation is enhanced and food intake is inhibited.
Weight loss following treatment with therapeutically relevant doses of MetAP2 inhibitors stops once animals attain a normal body composition. […] This third phase can be maintained indefinitely provided the drug is continued (see FIG. 10), or presumably can be maintained in practice through other complementary pharmacologic, dietary, or lifestyle interventions.

The subject of experiment [6] is C57BL/6 mice conditioned on a high fat diet. As to the kind of experiment: Oral gavage for 10 days in high fat diet mice. It is filed as in vivo. To be noted: oral gavage 0.3 or 3 mg/kg daily for 10 days.
Excerpt: as §1

In experiment [7] the test system is C57BL/6 mice conditioned on a high-fat diet. As to the kind of experiment: 28 day oral gavage, fat and lean tissue change in high fat diet mice. It is filed as in vivo. To be noted: oral gavage 0.1 or 0.3 mg/kg for 28 days. As for the experimental part:
C57BL/6 mice were conditioned on a low-fat diet (LF), a high fat diet (HF), or a high-fat diet and treated with fumagillin (ZGN-201) administered by oral gavage at doses of 0.1 or 0.3 mg/kg for 28 days. […] To determine whether the weight loss resulted from loss of fat or loss of lean tissue, the percentage change in fat tissue and lean tissue was determined for LF mice, HF mice, HF mice treated with 0.1 mg/kg fumagillin, and HF mice treated with 0.3 mg/kg fumagillin.
Upon histological examination, the studies of treated obese mice show no effect on growth of new blood vessels in growing fat depots and no effect on blood vessel size or density when compared to animals in which weight loss has been induced by simple energy (food) restriction.

Where [8] appears, read: diet admixture 1 mg/kg daily for 250 days.

Structures are written as SMILES.

Regarding `CO[C@@H]1[C@H](OC(=O)N[C@@H](C(N)=O)C(C)C)CC[C@]2(CO2)[C@H]1[C@@]1(C)O[C@@H]1CC=C(C)C` [B], the “body weight change over the course of the 8 days” value (from here on “body weight change”) in experiment [1] is recorded as “lost weight”.
Same read-out and setting: the entry for `CO[C@@H]1[C@H](OC(=O)N[C@@H](C(=O)NCCN2CCCC2)C(C)C)CC[C@]2(CO2)[C@H]1[C@@]1(C)O[C@@H]1CC=C(C)C` [E] is “lost weight”.
Take `CO[C@@H]1[C@H](OC(=O)/C=C/C=C/C=C/C=C/C(=O)O)CC[C@]2(CO2)[C@H]1[C@@]1(C)O[C@@H]1CC=C(C)C` [fumagillin]: the “maintained weight less than that of age-matched lean mice on normal chow” value in experiment [2] (1 mg/kg daily, after maximum weight reduction) amounted to 25%. Further, in experiment [2] (1 mg/kg, 250 days), the adipocyte size entry was “more similar to that of age-matched lean mice”; the “crown-like structures in adipose tissue” value is on record as “absent”; the “fasted glucose and insulin levels, insulin-glucose product” value was “more similar to that of age-matched lean mice”; the “retroperitoneal fat pad weight” value is listed as “more similar to that of age-matched lean mice”. Moreover, the “size and appearance of epididymal fat, peri-renal fat and liver” value in experiment [2] (1 mg/kg, 250 days) is on record as “more similar to that of age-matched lean mice”. In addition, in experiment [2] (setting [8]), the “hydroxybutyrate concentration at longer time points” value is reported as “Increased hydroxybutyrate concentration persisted” and the “reduction in body fat” value is “approximately 40%”. Besides, the “expression of TXN” value in experiment [3] (Cos-1 and 293T cells transfected with FLAG-tagged TXN) was “significantly increased”. For the same molecule, the EC50 – broadly, the concentration needed to bring the measured effect to its halfway point – in experiment [3] (gel, FIG. 4, read-out: EC50 to increase TXN levels) was under 10 nM. Moreover, the “body weight change” value in experiment [1] was “lost the most weight”. Moreover, in experiment [4] (LC/MS), the “accumulation of N-acetyl TXN(1-4)” value was “significant accumulation” and the “cellular level of TXN containing an intact N-terminal methionine [TXN(1-4)]” value is given as “significantly increased”. In addition, the EC50 in experiment [4] (Mus musculus, B16-F10, read-out: EC50 to increase Met-TXN acetylated Met-TXN levels) was under 10 nM. In experiment [5] (1 mg/kg for 14 days, second phase), the “food intake during period of rapid weight loss” value is recorded as “inhibited”. For the same molecule, the “food intake after weight loss nadir” value in experiment [5] (1 mg/kg, third phase) is “returns to normal levels”. In addition, in experiment [6], the beta hydroxybutyrate concentrations entry is “increase” and the “free fatty acid concentration” value is on record as “without an increase”. Besides, in experiment [7], the body weight entry is “reduction in body weight down to the level of low fat fed mice”, the reduction in fat was 40-50% and the “reduction in lean tissue” value is listed as 5-10%.
As for `CO[C@@H]1[C@H](OC(=O)NCCC2CCCN2C)CC[C@]2(CO2)[C@H]1[C@@]1(C)O[C@@H]1CC=C(C)C` (stereo partly drawn) [C], the “body weight change” value in experiment [1] is “lost weight”.
